Laboratory results taken from paper PMC9950143 (Scientific Reports, 2023).
Entries after “also recorded” stand apart in the source; their conditions may differ. Where a name gives a salt, the structure may show the parent alone.

Experiments:
[1] = test system: SUDV Boniface and MARV Ci67; type: cell-based, Sudan virus, Marburg virus
[2] = human plasma maximum concentration; ref [1]–[19]; cited from earlier work
[3] = ref PubChem compound summaries; cited from earlier work
SUDV Boniface [4] = experiment: microbe, parasite or virus in culture; type: cell-based, Sudan virus; settings: for EC50: Sudan ebolavirus, HeLa, read-out: Activity against SUDV EC50
MARV Ci67 [5] = experiment: organism not typed; type: cell-based, Marburg virus; settings: HeLa, read-out: Activity against MARV EC50
in vitro [6] = settings: human
HCV 1b replicon = settings: read-out: EC50 against HCV 1b replicon (early studies); cited from earlier work
dengue virus-2 (DENV-2) = settings: read-out: EC50 against dengue virus-2 (DENV-2); cited from earlier work
yellow fever virus (YFV) = settings: read-out: EC50 against yellow fever virus (YFV); cited from earlier work
West Niles virus (WNV) = settings: read-out: EC50 against West Niles virus (WNV); cited from earlier work
SUDV Boniface [7] = type: cell-based, Sudan virus
MARV Ci67 [8] = type: cell-based, Marburg virus
in vitro [9] = settings: human; remark: listed apart in the source
[10] = in vivo; cited from earlier work

SMILES | Drug-drug interaction? (RDV potency) [1] | RDV CC50 when combination (HeLa cells; human) | RDV CC50 when in combination (HeLa cells; human) | Cmax [2] | effect on RDV potency in combination studies [1] | Plasma Protein Binding [3] | also measured
CO/N=C(\C(=O)N[C@@H]1C(=O)N2C(C(=O)O)=C(CSc3nc(=O)c(=O)[nH]n3C)CS[C@H]12)c1csc(N)n1 [Ceftriaxone, ceftriaxone disodium salt hemi(heptahydrate)] | Not antagonistic | > 2.5 µM | > 2.5 µM | 291000 [7] ng/mL | – | – | CC50 (SUDV assay) (HeLa cells; human): 20.9 ± 10.1 µM
CC(C)OC(=O)OCOP(=O)(CO[C@H](C)Cn1cnc2c(N)ncnc21)OCOC(=O)OC(C)C [Tenofovir disoproxil fumarate] | No | > 2.5 µM | > 2.5 µM | 300 [18, 19] ng/mL | minimal effect on RDV potency | <1% | –
C[C@H]1[C@H](OC(=O)CCC(=O)O)O[C@@H]2O[C@@]3(C)CC[C@H]4[C@H](C)CC[C@@H]1[C@@]24OO3 [Artesunate] | No | > 2.5 µM | – | 3260 [4] ng/mL | – | 93% | –
CCCCN(CCCC)CC(O)c1cc(Cl)cc2c1-c1ccc(Cl)cc1/C2=C/c1ccc(Cl)cc1 (stereo not drawn) [Lumefantrine] | Not antagonistic | > 2.5 µM | > 2.5 µM | 6300 [10] ng/mL | – | – | EC50 (SUDV Boniface [4]): 9.6 ± 0.52 µM; EC50 (MARV Ci67 [5]): 16.6 ± 7.3 µM; CC50 at 48 h (in vitro [6]): 37.3 ± 0.9 µM; CC50 (in vitro [6]; CC50 (SUDV assay)): 40 ± 1.2 µM
COc1ccc2[nH]c([S+]([O-])Cc3ncc(C)c(OC)c3C)nc2c1 (stereo not drawn) [Omeprazole] | No | > 2.5 µM | > 2.5 µM | 598 [12] ng/mL | minimal effect on RDV potency | – | –
Cc1cccc(C)c1OCC(=O)N[C@@H](Cc1ccccc1)[C@@H](O)C[C@H](Cc1ccccc1)NC(=O)[C@H](C(C)C)N1CCCNC1=O [Lopinavir] | No for MARV; also recorded: Not antagonistic | > 2.5 µM | > 2.5 µM | – | – | >98% | EC50 (SUDV Boniface [4]): 2.32 ± 0.58 µM; EC50 (MARV Ci67 [5]): > 100 µM; CC50 at 48 h (in vitro [6]): > 100 µM; CC50 (in vitro [6]; CC50 (SUDV assay)): 34.1 ± 0.9 µM
Cc1nccn1CC1CCc2c(c3ccccc3n2C)C1=O (stereo not drawn) [Ondansetron, ondansetron hydrochloride dihydrate] | No | > 2.5 µM | > 2.5 µM | 106 [13] ng/mL | minimal effect on RDV potency | 73% | –
Nc1ccn([C@@H]2CS[C@H](CO)O2)c(=O)n1 [Lamivudine] | No | > 2.5 µM | > 2.5 µM | 2600 [15] ng/mL | minimal effect on RDV potency | <36% | –
O=C1Nc2ccc(Cl)cc2[C@@](C#CC2CC2)(C(F)(F)F)O1 [Efavirenz] | Not antagonistic | – | – | 12900 [14] ng/mL | – | 99.5–99.75% | EC50 (SUDV Boniface [4]): 2.24 ± 0.57 µM; EC50 (MARV Ci67 [5]): 19.8 ± 0.1 µM; cytotoxicity of combination with RDV (HeLa cells): Enhanced cytotoxicity; CC50 at 48 h (in vitro [6]): 15.1 ± 4.1 µM; CC50 (in vitro [6]; CC50 (SUDV assay)): 20.7 ± 10.1 µM; CC50 (in vitro [6]; CC50 when tested alone): 14 to 28 µM
N#C[C@@]1(c2ccc3c(N)ncnn23)O[C@H](CO)[C@@H](O)[C@H]1O [GS-441524] | – | – | – | – | – | – | EC50 (HCV 1b replicon): 3.1 µM; EC50 (dengue virus-2 (DENV-2)): 9.46 µM; EC50 (yellow fever virus (YFV)): 11 µM; EC50 (West Niles virus (WNV)): > 30 µM
[H]/N=C(\N/C(=N/[H])Nc1ccc(Cl)cc1)NC(C)C [Proguanil, Proguanil hydrochloride] | No | > 2.5 µM | > 2.5 µM | 918 [5] ng/mL | minimal effect on RDV potency | – | –
Cc1ncc([N+](=O)[O-])n1CCO [Metronidazole] | No | > 2.5 µM | > 2.5 µM | 5100 [11] ng/mL | minimal effect on RDV potency | 20% | –
CN1C(=O)CN=C(c2ccccc2)c2cc(Cl)ccc21 [Diazepam] | No | – | – | – | minimal effect on RDV potency | – | –
CO[C@H]1O[C@@H]2O[C@@]3(C)CC[C@H]4[C@H](C)CC[C@@H]([C@H]1C)[C@@]24OO3 [Artemether] | No | > 2.5 µM | > 2.5 µM | 198 [3] ng/mL | minimal effect on RDV potency | 95.4% | –
CC(=O)Nc1ccc(O)cc1 [Acetaminophen] | No | > 2.5 µM | > 2.5 µM | 11400 [1] ng/mL | minimal effect on RDV potency | 10–25% | –
CC(C)c1nc(CN(C)C(=O)N[C@H](C(=O)N[C@@H](Cc2ccccc2)C[C@H](O)[C@H](Cc2ccccc2)NC(=O)OCc2cncs2)C(C)C)cs1 [Ritonavir] | No | – | – | 1271 [17] ng/mL | minimal effect on RDV potency | – | –
CCN(CC)Cc1cc(Nc2ccnc3cc(Cl)ccc23)ccc1O [Amodiaquine, Amodiaquine hydrochloride dihydrate] | Enhanced^5 for SUDV | > 2.5 µM | > 2.5 µM | 32.3 [2] ng/mL | – | – | fold lowering of RDV EC50 against SUDV (SUDV Boniface [4]): > 5 folds
O=C(O)c1cn(C2CC2)c2cc(N3CCNCC3)c(F)cc2c1=O [Ciprofloxacin] | Enhanced for SUDV | – | – | – | – | – | –
NC(=O)c1nc(F)c[nH]c1=O [Favipiravir, 6-fluoro-3-oxo-3,4-dihydropyrazine-2-carboxamide] | – | – | – | – | – | – | maximum fold reduction of favipiravir EC50 in combination with RDV (SUDV Boniface [7]): ≥ 21 fold; maximum fold reduction of favipiravir EC50 in combination with RDV (MARV Ci67 [8]): ≥ 4.8 fold; CC50 (in vitro [9]): > 750 µM; decrease of plasma median concentration on Day 4 [10]: ~ 50%
O=C1C(O)=C([C@H]2CC[C@H](c3ccc(Cl)cc3)CC2)C(=O)c2ccccc21 [Atovaquone] | No | – | – | 8300 [5, 6] ng/mL | minimal effect on RDV potency | 99.9% | cytotoxicity of combination with RDV (HeLa cells): Enhanced cytotoxicity; CC50 (in vitro [6]; CC50 when tested alone): 8 to 17 µM
